From patent US10045532B2, “Synergistic herbicidal mixtures for glyphosate-resistant volunteer corn control” (Valent U.S.A., Corporation, priority 2015, dated 2018)
Counter-ions that a name gives are not always drawn.

Columns and labels:
Type in all cases: in vivo
[1] = test system: glyphosate-resistant corn variety P1690; experiment: Foliar spray of corn at V7 stage in outdoor replicated field plots, corn variety P1690 (Example 2, Table 2); settings: for percent control of glyphosate-resistant corn, 9 DAT / percent control of glyphosate-resistant corn, 16 DAT: variety P1690
Text: (§1) Two varieties of corn were foliarly sprayed with mixtures of ethyl [3-[2-chloro-4-fluoro-5-(1-methyl-6-trifluoromethyl-2,4-dioxo-1,2,3,4-tetrahydropyrimidin-3-yl)phenoxy]-2-pyridyloxy]acetate and the potassium salt of glyphosate in outdoor replicated field plots. In addition, mixtures of ethyl [3-[2-chloro-4-fluoro-5-(1-methyl-6-trifluoromethyl-2,4-dioxo-1,2,3,4-tetrahydropyrimidin-3-yl)phenoxy]-2-pyridyloxy]acetate and glufosinate, and N,N′-dimethyl-4,4′-bipyridinium dichloride alone were foliarly sprayed. One corn variety was glyphosate-resistant and the other variety was both glyphosate and glufosinate resistant. The corn plants were at the V7 (plants with seven leaves with visible collars, about 30 to 40 inches tall) stage of development at the time of treatment. Roundup® PowerMax (available from Monsanto Company) was used as the source of the potassium salt of glyphosate. The adjuvant non-ionic surfactant was applied with ethyl [3-[2-chloro-4-fluoro-5-(1-methyl-6-trifluoromethyl-2,4-dioxo-1,2,3,4-tetrahydropyrimidin-3-yl)phenoxy]-2-pyridyloxy]acetate. The effects of the treatments were observed and recorded 9 and 16 days after the treatments (“9 DAT” and “16 DAT”, respectively).

[2] = test system: glyphosate-resistant and glufosinate-resistant corn variety 765-30; experiment: Foliar spray of corn at V7 stage in outdoor replicated field plots, corn variety 765-30 (Example 2, Table 3); settings: for percent control of glyphosate-resistant and glufosinate-resistant corn, 9 DAT / percent control of glyphosate-resistant and glufosinate-resistant corn, 16 DAT: variety 765-30
Text: as §1

[3] = test system: volunteer glyphosate-resistant corn; experiment: Foliar spray of glyphosate-resistant corn at V4 stage in outdoor replicated field plots (Example 1)
Text: Glyphosate-resistant corn was foliarly sprayed with mixtures of ethyl [3-[2-chloro-4-fluoro-5-(1-methyl-6-trifluoromethyl-2,4-dioxo-1,2,3,4-tetrahydropyrimidin-3-yl)phenoxy]-2-pyridyloxy]acetate and the potassium salt of glyphosate in outdoor replicated field plots. The corn was at the V4 (plants with four leaves with visible collars, about 6 to 8 inches tall) stage of development at the time of treatment. Roundup® PowerMax (available from Monsanto Company) was used as the source of the potassium salt of glyphosate. The adjuvant crop oil concentrate was applied with ethyl [3-[2-chloro-4-fluoro-5-(1-methyl-6-trifluoromethyl-2,4-dioxo-1,2,3,4-tetrahydropyrimidin-3-yl)phenoxy]-2-pyridyloxy]acetate. The effects of the treatments were observed and recorded 9 and 23 days after the treatments (“9 DAT” and “23 DAT”, respectively).

[4] = Treatment 15, 500 g active/hectare
[5] = Treatment 2, 1054 g active/hectare
[6] = Treatment 8, 1260 g active/hectare
[7] = Treatment 18, 840 g active/hectare
[8] = Treatment 3, 5.6 g active/hectare
[9] = Treatment 4, 10.1 g active/hectare
[10] = Treatment 5, 20.2 g active/hectare
[11] = Treatment 6, 30.3 g active/hectare
[12] = Treatment 7, 40.3 g active/hectare
[13] = Treatment 2, 1.25 g active/hectare
[14] = Treatment 3, 2.5 g active/hectare
[15] = Treatment 4, 5 g active/hectare
[16] = Treatment 5, 10 g active/hectare
[17] = Treatment 6, 20 g active/hectare
[18] = Treatment 7, 30 g active/hectare

## CP(=O)(O)CCC(N)C(=O)O (stereo not drawn) [Glufosinate, reference compound]
[1]; [4]
  percent control of glyphosate-resistant corn, 9 DAT: 92.7%
  percent control of glyphosate-resistant corn, 16 DAT: 100%
[2]; [4]
  percent control of glyphosate-resistant and glufosinate-resistant corn, 9 DAT: 3.8%
  percent control of glyphosate-resistant and glufosinate-resistant corn, 16 DAT: 0%

## O=C(O)CNCP(=O)(O)O [Glyphosate, potassium salt, reference compound]
[3]; [5]
  percent control of volunteer glyphosate-resistant corn, 9 DAT: 0%
  percent control of volunteer glyphosate-resistant corn, 23 DAT: 0%
[3]; applied alone, Table 1
  activity against glyphosate-resistant corn when applied alone: no activity
[1]; [6]
  percent control of glyphosate-resistant corn, 9 DAT: 0%
  percent control of glyphosate-resistant corn, 16 DAT: 0%
[1]; applied alone, Table 2, variety P1690
  activity against glyphosate-resistant corn when applied alone: no activity
[2]; [6]
  percent control of glyphosate-resistant and glufosinate-resistant corn, 9 DAT: 0%
  percent control of glyphosate-resistant and glufosinate-resistant corn, 16 DAT: 0%
[2]; applied alone, Table 3, variety 765-30
  activity against glyphosate-resistant corn when applied alone: no activity

## C[n+]1ccc(-c2cc[n+](C)cc2)cc1.[Cl-].[Cl-] [N,N′-dimethyl-4,4′-bipyridinium dichloride, reference compound]
[1]; [7]
  percent control of glyphosate-resistant corn, 9 DAT: 84%
  percent control of glyphosate-resistant corn, 16 DAT: 77.5%
[2]; [7]
  percent control of glyphosate-resistant and glufosinate-resistant corn, 9 DAT: 81.3%
  percent control of glyphosate-resistant and glufosinate-resistant corn, 16 DAT: 92.5%

## CCOC(=O)COc1ncccc1Oc1cc(-n2c(=O)cc(C(F)(F)F)n(C)c2=O)c(F)cc1Cl [ethyl [3-[2-chloro-4-fluoro-5-(1-methyl-6-trifluoromethyl-2,4-dioxo-1,2,3,4-tetrahydropyrimidin-3-yl)phenoxy]-2-pyridyloxy]acetate]
[3]; [8]
  percent control of volunteer glyphosate-resistant corn, 9 DAT: 68.78%
  percent control of volunteer glyphosate-resistant corn, 23 DAT: 6.7%
[3]; [9]
  percent control of volunteer glyphosate-resistant corn, 9 DAT: 95.75%
  percent control of volunteer glyphosate-resistant corn, 23 DAT: 87.74%
[3]; [10]
  percent control of volunteer glyphosate-resistant corn, 9 DAT: 99.89%
  percent control of volunteer glyphosate-resistant corn, 23 DAT: 99.89%
[3]; [11]
  percent control of volunteer glyphosate-resistant corn, 9 DAT: 100%
  percent control of volunteer glyphosate-resistant corn, 23 DAT: 100%
[3]; [12]
  percent control of volunteer glyphosate-resistant corn, 9 DAT: 100%
  percent control of volunteer glyphosate-resistant corn, 23 DAT: 100%
[1]; [13]
  percent control of glyphosate-resistant corn, 9 DAT: 16.15%
  percent control of glyphosate-resistant corn, 16 DAT: 25%
[1]; [14]
  percent control of glyphosate-resistant corn, 9 DAT: 49.78%
  percent control of glyphosate-resistant corn, 16 DAT: 55%
[1]; [15]
  percent control of glyphosate-resistant corn, 9 DAT: 44.48%
  percent control of glyphosate-resistant corn, 16 DAT: 40%
[1]; [16]
  percent control of glyphosate-resistant corn, 9 DAT: 57.6%
  percent control of glyphosate-resistant corn, 16 DAT: 42.5%
[1]; [17]
  percent control of glyphosate-resistant corn, 9 DAT: 81.8%
  percent control of glyphosate-resistant corn, 16 DAT: 100%
[1]; [18]
  percent control of glyphosate-resistant corn, 9 DAT: 95%
  percent control of glyphosate-resistant corn, 16 DAT: 100%
[2]; [13]
  percent control of glyphosate-resistant and glufosinate-resistant corn, 9 DAT: 16.15%
  percent control of glyphosate-resistant and glufosinate-resistant corn, 16 DAT: 25%
[2]; [14]
  percent control of glyphosate-resistant and glufosinate-resistant corn, 9 DAT: 49.78%
  percent control of glyphosate-resistant and glufosinate-resistant corn, 16 DAT: 52.5%
[2]; [15]
  percent control of glyphosate-resistant and glufosinate-resistant corn, 9 DAT: 42.3%
  percent control of glyphosate-resistant and glufosinate-resistant corn, 16 DAT: 40%
[2]; [16]
  percent control of glyphosate-resistant and glufosinate-resistant corn, 9 DAT: 57.6%
  percent control of glyphosate-resistant and glufosinate-resistant corn, 16 DAT: 42.5%
[2]; [17]
  percent control of glyphosate-resistant and glufosinate-resistant corn, 9 DAT: 81.8%
  percent control of glyphosate-resistant and glufosinate-resistant corn, 16 DAT: 91.3%
[2]; [18]
  percent control of glyphosate-resistant and glufosinate-resistant corn, 9 DAT: 95%
  percent control of glyphosate-resistant and glufosinate-resistant corn, 16 DAT: 100%
